Assay results from PubChem BioAssay AID602251 (NMMLSC, 2012).
The source made the active and inactive calls.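 The calls were made as follows: active = fitted concentration giving half of the maximal binding block below 66 µM; inactive = the rest.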

Target: anti-desmoglein 3 scFv antibody binding to human desmoglein 3 (DSG3)
Test: inhibitors of anti-DSG3 scFv binding to DSG3, dose response, biochemical, DSG3-coupled beads, scFv-GFP, flow cytometry, Cherry Pick 1 (AID 602251)

| binding response, lower = inhibition (at 66.1 µM (top of the series)) | EC50 | SMILES |
| --- | --- | --- |
| inactive |  | Cc1ccc(-c2nc3sc(C#N)c(N)n3c(=O)c2C#N)cc1 |
|  | 39.1 µM | Nc1ccc2nc3c(=O)[nH]c(=S)[nH]c3nc2c1 |
